Measurements published in ChEMBL document CHEMBL1201862, “PubChem BioAssay data set” (2004).
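Protocol summary: plate cells (96-well), add compound at 5 concentrations, incubate 48 h, interpolate endpoints linearly. GI50 is the concentration that inhibits growth by half.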 Calls of active or inactive are those of the source. Cut-off read from the data, not from the text of the source: active = GI50 up to about 1.1 µM and inactive = higher.

Experiments:
Experiment in all cases: DTP human tumour cell line panel, 48 h
786-0 = test system: 786-0
A498 = test system: A498
A549 = test system: A549
ACHN = test system: ACHN
BT-549 = test system: BT-549
CAKI-1 = test system: CAKI-1
CCRF-CEM = test system: CCRF-CEM
COLO 205 = test system: COLO 205
EKVX = test system: EKVX
HCC 2998 = test system: HCC 2998
HCT-116 = test system: HCT-116
HCT-15 = test system: HCT-15
HL-60 = test system: HL-60
HOP-62 = test system: HOP-62
HOP-92 = test system: HOP-92
HT-29 = test system: HT-29
Hs-578T = test system: Hs-578T
IGROV-1 = test system: IGROV-1
K562 = test system: K562
KM12 = test system: KM12
LOX IMVI = test system: LOX IMVI
M14 = test system: M14
MCF7 = test system: MCF7
MDA-MB-231 = test system: MDA-MB-231
MDA-MB-435 = test system: MDA-MB-435
MOLT-4 = test system: MOLT-4
Malme-3M = test system: Malme-3M
NCI-H226 = test system: NCI-H226
NCI-H23 = test system: NCI-H23
NCI-H460 = test system: NCI-H460
NCI-H522 = test system: NCI-H522
NCI/ADR-RES = test system: NCI/ADR-RES
OVCAR-3 = test system: OVCAR-3
OVCAR-4 = test system: OVCAR-4
OVCAR-5 = test system: OVCAR-5
OVCAR-8 = test system: OVCAR-8
PC-3 = test system: PC-3
RPMI-8226 = test system: RPMI-8226
RXF 393 = test system: RXF 393
SF-268 = test system: SF-268
SF-295 = test system: SF-295
SF-539 = test system: SF-539
SK-MEL-28 = test system: SK-MEL-28
SK-MEL-2 = test system: SK-MEL-2
SK-MEL-5 = test system: SK-MEL-5
SK-OV-3 = test system: SK-OV-3
SN12C = test system: SN12C
SNB-19 = test system: SNB-19
SNB-75 = test system: SNB-75
SR = test system: SR
SW-620 = test system: SW-620
T47D = test system: T47D
TK-10 = test system: TK-10
U-251 = test system: U-251
UACC-257 = test system: UACC-257
UACC-62 = test system: UACC-62
UO-31 = test system: UO-31
DU-145 = test system: DU-145

Structure (SMILES): COC1=CC2(CC(OC)=C1OC)OC21COc2ccccc2C1=O (stereo not given)
- GI50 (786-0): 37.7 µM (inactive)
- GI50 (A498): > 100 µM (inactive)
- GI50 (A549): 56.4 µM (inactive)
- GI50 (ACHN): 45.1 µM (inactive)
- GI50 (BT-549): > 100 µM (inactive)
- GI50 (CAKI-1): > 100 µM (inactive)
- GI50 (CCRF-CEM): 32.3 µM (inactive)
- GI50 (COLO 205): > 100 µM (inactive)
- GI50 (EKVX): 39.4 µM (inactive)
- GI50 (HCC 2998): > 100 µM (inactive)
- GI50 (HCT-116): 50.5 µM (inactive)
- GI50 (HCT-15): 65.8 µM
- GI50 (HL-60): 32.4 µM (inactive)
- GI50 (HOP-62): > 100 µM (inactive)
- GI50 (HOP-92): > 100 µM (inactive)
- GI50 (HT-29): 51.4 µM (inactive)
- GI50 (Hs-578T): > 100 µM (inactive)
- GI50 (IGROV-1): > 100 µM (inactive)
- GI50 (K562): 56.2 µM (inactive)
- GI50 (KM12): > 100 µM (inactive)
- GI50 (LOX IMVI): 50.5 µM (inactive)
- GI50 (M14): 87.5 µM (inactive)
- GI50 (MCF7): 55.7 µM (inactive)
- GI50 (MDA-MB-231): > 100 µM (inactive)
- GI50 (MDA-MB-435): > 100 µM (inactive)
- GI50 (MOLT-4): 23 µM (inactive)
- GI50 (Malme-3M): > 100 µM (inactive)
- GI50 (NCI-H226): 62.5 µM (inactive)
- GI50 (NCI-H23): 58.5 µM (inactive)
- GI50 (NCI-H460): 42.9 µM (inactive)
- GI50 (NCI-H522): 75 µM (inactive)
- GI50 (NCI/ADR-RES): 85.7 µM (inactive)
- GI50 (OVCAR-3): > 100 µM (inactive)
- GI50 (OVCAR-4): 84.5 µM (inactive)
- GI50 (OVCAR-5): > 100 µM (inactive)
- GI50 (OVCAR-8): > 100 µM (inactive)
- GI50 (PC-3): 84.5 µM (inactive)
- GI50 (RPMI-8226): 51.5 µM (inactive)
- GI50 (RXF 393): 46 µM (inactive)
- GI50 (SF-268): > 100 µM (inactive)
- GI50 (SF-295): 61.2 µM (inactive)
- GI50 (SF-539): > 100 µM (inactive)
- GI50 (SK-MEL-28): > 100 µM (inactive)
- GI50 (SK-MEL-2): 40.2 µM (inactive)
- GI50 (SK-MEL-5): 43 µM (inactive)
- GI50 (SK-OV-3): > 100 µM (inactive)
- GI50 (SN12C): 47.2 µM (inactive)
- GI50 (SNB-19): 65.2 µM (inactive)
- GI50 (SNB-75): 37.4 µM (inactive)
- GI50 (SR): 24.9 µM (inactive)
- GI50 (SW-620): > 100 µM (inactive)
- GI50 (T47D): 34.3 µM (inactive)
- GI50 (TK-10): > 100 µM (inactive)
- GI50 (U-251): 73.8 µM (inactive)
- GI50 (UACC-257): 44.4 µM (inactive)
- GI50 (UACC-62): 60.1 µM (inactive)
- GI50 (UO-31): 5.16 µM (inactive)

Structure (SMILES): O=C(/C(=C\I)c1ccccc1)c1ccccc1
- GI50 (786-0): 3.52 µM (inactive)
- GI50 (A498): 16.5 µM (inactive)
- GI50 (A549): 22.4 µM (inactive)
- GI50 (ACHN): 13 µM (inactive)
- GI50 (BT-549): 16.3 µM (inactive)
- GI50 (CAKI-1): 1.51 µM (inactive)
- GI50 (CCRF-CEM): 14.5 µM (inactive)
- GI50 (COLO 205): 3.63 µM (inactive)
- GI50 (DU-145): 7.16 µM (inactive)
- GI50 (EKVX): 18.3 µM (inactive)
- GI50 (HCC 2998): 3.94 µM (inactive)
- GI50 (HCT-116): 11.6 µM (inactive)
- GI50 (HCT-15): 3.33 µM
- GI50 (HL-60): 0.458 µM (active)
- GI50 (HOP-62): 4.19 µM (inactive)
- GI50 (HOP-92): 13.7 µM (inactive)
- GI50 (HT-29): 1.93 µM (inactive)
- GI50 (Hs-578T): 3.75 µM (inactive)
- GI50 (IGROV-1): 10.8 µM (inactive)
- GI50 (K562): 3.31 µM (inactive)
- GI50 (KM12): 2.71 µM (inactive)
- GI50 (LOX IMVI): 12.7 µM (inactive)
- GI50 (M14): 15 µM (inactive)
- GI50 (MCF7): 1.8 µM (inactive)
- GI50 (MDA-MB-231): 3.94 µM (inactive)
- GI50 (MDA-MB-435): 12.6 µM (inactive)
- GI50 (MOLT-4): 18.3 µM (inactive)
- GI50 (Malme-3M): 7.31 µM (inactive)
- GI50 (NCI-H226): 24.6 µM (inactive)
- GI50 (NCI-H23): 9.89 µM (inactive)
- GI50 (NCI-H460): 10.9 µM (inactive)
- GI50 (NCI-H522): 4.86 µM (inactive)
- GI50 (NCI/ADR-RES): 19.4 µM (inactive)
- GI50 (OVCAR-3): 2.24 µM (inactive)
- GI50 (OVCAR-4): 6.7 µM (inactive)
- GI50 (OVCAR-5): 17.5 µM (inactive)
- GI50 (OVCAR-8): 4.32 µM (inactive)
- GI50 (PC-3): 2.71 µM (inactive)
- GI50 (RPMI-8226): 2.48 µM (inactive)
- GI50 (RXF 393): 5.35 µM (inactive)
- GI50 (SF-268): 13.9 µM (inactive)
- GI50 (SF-295): 16.9 µM (inactive)
- GI50 (SF-539): 15.2 µM (inactive)
- GI50 (SK-MEL-28): 2.16 µM (inactive)
- GI50 (SK-MEL-2): 7.8 µM (inactive)
- GI50 (SK-MEL-5): 17.3 µM (inactive)
- GI50 (SK-OV-3): 17.1 µM (inactive)
- GI50 (SN12C): 18 µM (inactive)
- GI50 (SNB-19): 8.95 µM (inactive)
- GI50 (SNB-75): 9.42 µM (inactive)
- GI50 (SR): 8.18 µM (inactive)
- GI50 (SW-620): 4.57 µM (inactive)
- GI50 (T47D): 4.14 µM (inactive)
- GI50 (TK-10): 16 µM (inactive)
- GI50 (U-251): 2.75 µM (inactive)
- GI50 (UACC-257): 4.55 µM (inactive)
- GI50 (UACC-62): 3.26 µM (inactive)
- GI50 (UO-31): 7.78 µM (inactive)
